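Cultured in 96-well plates, cells were exposed to test compound for 48 hours across five concentrations. GI50 is the concentration that inhibits growth by half. The concentration for full growth arrest is given as TGI.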
Key:
Experiment in all cases: NCI tumour cell line growth inhibition, 48 h
[1] = test system: 786-0 renal
[2] = test system: A549 NSCLC
[3] = test system: BT-549 breast
[4] = test system: HL-60(TB) leukemia
[5] = test system: KM12 colon
[6] = test system: MDA-MB-231 breast
[7] = test system: MOLT-4 leukemia
[8] = test system: OVCAR-8 ovarian
[9] = test system: SW-620 colon
[10] = test system: HS 578T breast

Row | Structure (SMILES) | GI50 [1] [µM] | TGI [1] [µM] | GI50 [2] [µM] | TGI [2] [µM] | GI50 [3] [µM] | TGI [3] [µM] | GI50 [4] [µM] | TGI [4] [µM] | GI50 [5] [µM] | TGI [5] [µM] | GI50 [6] [µM] | TGI [6] [µM] | GI50 [7] [µM] | TGI [7] [µM] | GI50 [8] [µM] | TGI [8] [µM] | GI50 [9] [µM] | TGI [9] [µM] | GI50 [10] [µM] | TGI [10] [µM]
1 | Nc1cc(-c2ccccc2)ccc1O | > 100 | > 100 | > 100 | > 100 | 79.3 | > 100 | 45.4 | > 100 | 58.4 | > 100 | 7.32 | > 100 | 51.9 | > 100 | > 100 | > 100 | > 100 | > 100 | – | –
2 | O=C(O)/C(=C/c1ccccc1[N+](=O)[O-])c1ccccc1 | – | > 100 | – | > 100 | – | – | – | > 100 | – | > 100 | – | – | – | > 100 | – | > 100 | – | > 100 | – | –
3 | CCN(CC)CCOc1ccc(/C=C2\CC3C4CCC5=CC(=O)CC[C@]5(C)C4CC[C@]3(C)C2=O)cc1OC (stereo partly specified) | 2.18 | 4.61 | 4.54 | 58.3 | 5.02 | 19.7 | – | – | 1.93 | 3.85 | 2.55 | 6.17 | 5.78 | > 100 | 4.09 | 18.2 | 2.98 | 13.4 | 2.45 | 17.3
4 | O=C(N/N=C1\CCc2ccccc2C1)N/N=C1\CCc2ccccc2C1 | – | > 10 | – | > 10 | – | > 10 | – | > 10 | – | > 10 | – | > 10 | – | > 10 | – | > 10 | – | > 10 | – | –
5 | Nc1ccc(Nc2nc(F)nc(-c3c4ccccc4c4n3CCS4)n2)cc1 | – | 32 | – | 31.2 | – | – | – | – | – | 26.5 | – | – | – | 50.9 | – | 37.8 | – | 27.9 | – | –
6 | O=S1(=O)CCN(Cc2ccccn2)CC1 | – | > 100 | – | > 100 | – | > 100 | – | – | – | > 100 | – | > 100 | – | – | – | > 100 | – | > 100 | – | > 100
7 | O=Cc1ccc(-c2ccc(-c3ccc(C=O)s3)o2)s1 | – | > 100 | – | > 100 | – | > 100 | – | > 100 | – | > 100 | – | > 100 | – | > 100 | – | > 100 | – | > 100 | – | –
8 | CC(c1ccc(Br)cc1)C(C(=O)O)C(=O)O (stereo unspecified) | – | > 100 | – | > 100 | – | – | – | > 100 | – | > 100 | – | – | – | > 100 | – | > 100 | – | > 100 | – | –
9 | Cc1ccc(NC(=O)/C(CC(=O)c2c[n+](=O)c3ccccc3n2O)=N\NC(=O)C[n+]2ccccc2)cc1 | – | > 100 | – | > 100 | – | – | – | > 100 | – | > 100 | – | – | – | > 100 | – | > 100 | – | > 100 | – | –
10 | Cc1c(C(=O)/C=C/c2ccc(Cl)cc2)[n+](=O)c2ccccc2n1[O-] | – | 27.4 | – | 33.6 | – | – | – | 35.2 | – | 22.7 | – | – | – | 45.6 | – | 23.3 | – | 21.9 | – | –
